Experimental data from ChEMBL document CHEMBL1201862, “PubChem BioAssay data set” (2004).
Several values for one entry are separate records, joined by “and”; a condition that tells them apart may be missing. Identical values can stand only once. Activity calls are given as the source filed them.

Columns and labels:
[1] = M. tuberculosis H37Rv growth inhibitors, H37Rv strain (AID 1626); format: functional
[2] = molecular target: T1, Adenosylmethionine-8-amino-7-oxononanoate aminotransferase (Mycobacterium tuberculosis, UniProt P9WQ81); assay: Mycobacterium tuberculosis BioA enzyme inhibitor Measured in Biochemical System Using Plate Reader - 2163-02_Inhibitor_Dose_CherryPick_Activity.; format: functional, Mycobacterium tuberculosis UT205
T1 sequence (P9WQ81 whole entry): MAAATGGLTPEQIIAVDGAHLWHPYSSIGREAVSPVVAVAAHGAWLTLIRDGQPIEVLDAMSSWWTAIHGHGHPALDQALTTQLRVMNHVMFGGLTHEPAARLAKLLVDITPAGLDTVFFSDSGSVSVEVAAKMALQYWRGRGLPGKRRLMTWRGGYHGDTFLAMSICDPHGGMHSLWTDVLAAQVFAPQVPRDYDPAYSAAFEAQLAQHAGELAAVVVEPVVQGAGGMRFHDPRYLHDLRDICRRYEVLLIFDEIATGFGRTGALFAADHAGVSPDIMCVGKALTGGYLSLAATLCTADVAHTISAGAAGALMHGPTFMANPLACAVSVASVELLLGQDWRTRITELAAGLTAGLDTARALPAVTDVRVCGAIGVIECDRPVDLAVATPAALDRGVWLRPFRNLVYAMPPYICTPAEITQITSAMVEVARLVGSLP

[3] = cells; format: functional, cell-based
[4] = cells; format: functional, cell-based; remark: listed apart in the source
[5] = molecular target: Nucleotide-binding oligomerization domain-containing protein 2 (Homo sapiens, UniProt Q9HC29); assay: inhibition of NOD2-driven NF-kB reporter – cell-based, luminescence, uHTS, HEK293 (AID 1566); format: functional
[6] = tested on: HEK293; assay: cells; format: functional, cell-based; conditions: Homo sapiens
[7] = molecular target: Tumor necrosis factor (Homo sapiens, UniProt P01375); assay: analog potency on TNFa NF-kB signaling – cell-based, revised, SAR follow-up (AID 2337); format: functional
[8] = tested on: HEK293; assay: cells; format: functional, cell-based; conditions: Homo sapiens; remark: listed apart in the source
[9] = tested on: HEK293; assay: cells; conditions: Homo sapiens
[10] = molecular target: T2, Nucleotide-binding oligomerization domain-containing protein 1 (Homo sapiens, UniProt Q9Y239); assay: blockers of NOD1 pathway activity – revised, SAR follow-up (AID 2333); format: functional
T2 sequence (Q9Y239 whole entry): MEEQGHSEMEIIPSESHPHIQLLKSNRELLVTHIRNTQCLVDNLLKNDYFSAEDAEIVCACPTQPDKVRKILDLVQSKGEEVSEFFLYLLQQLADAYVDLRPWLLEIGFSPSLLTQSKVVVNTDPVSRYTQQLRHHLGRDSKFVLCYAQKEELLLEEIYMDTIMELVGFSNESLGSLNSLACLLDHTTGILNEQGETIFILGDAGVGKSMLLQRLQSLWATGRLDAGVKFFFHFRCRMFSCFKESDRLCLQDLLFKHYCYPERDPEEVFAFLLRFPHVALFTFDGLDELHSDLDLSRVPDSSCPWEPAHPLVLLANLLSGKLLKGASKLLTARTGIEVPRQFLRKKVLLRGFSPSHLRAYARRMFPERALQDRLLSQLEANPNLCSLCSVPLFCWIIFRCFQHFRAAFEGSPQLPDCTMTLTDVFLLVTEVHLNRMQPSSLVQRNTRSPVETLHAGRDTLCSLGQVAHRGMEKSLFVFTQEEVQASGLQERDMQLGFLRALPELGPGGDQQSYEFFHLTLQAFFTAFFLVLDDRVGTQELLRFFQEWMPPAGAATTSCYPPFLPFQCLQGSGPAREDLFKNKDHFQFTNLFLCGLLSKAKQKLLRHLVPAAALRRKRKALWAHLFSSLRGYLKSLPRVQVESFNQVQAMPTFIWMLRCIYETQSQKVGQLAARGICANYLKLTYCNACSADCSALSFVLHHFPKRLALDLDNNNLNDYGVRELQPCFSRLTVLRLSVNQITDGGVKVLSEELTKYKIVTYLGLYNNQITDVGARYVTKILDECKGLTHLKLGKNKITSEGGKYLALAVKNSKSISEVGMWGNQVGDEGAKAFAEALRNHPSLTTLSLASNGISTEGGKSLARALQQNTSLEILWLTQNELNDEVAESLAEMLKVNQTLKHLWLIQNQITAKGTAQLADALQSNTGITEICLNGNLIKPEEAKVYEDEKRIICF

[11] = tested on: HEK293; assay: NOD2 signaling inhibitors in MDP-stimulated cells, cell-based, uHTS, luminescence (AID 2001); format: functional; conditions: Homo sapiens
[12] = tested on: HEK293; assay: inhibition of NOD1-driven NF-kB reporter – cell-based, luminescence, uHTS, primary screen (AID 1578); format: functional; conditions: Homo sapiens
[13] = tested on: HEK293; assay: cells; format: functional, cell-based; conditions: Homo sapiens; remark: listed apart in the source
[14] = cells; format: functional, cell-based; remark: listed apart in the source
[15] = cells; format: functional, cell-based; remark: listed apart in the source
[16] = molecular target: Dual specificity tyrosine-phosphorylation-regulated kinase 1A (Rattus norvegicus, UniProt Q63470); format: biochemical, Homo sapiens
[17] = molecular target: T3, Heat shock factor protein 1 (Mus musculus, UniProt P38532); assay: decrease of HSF1-responsive luciferase luminescence – cell-based, NIH3T3, dose retest, confirmation (AID 2382); format: functional;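 also: NIH3T3 fibroblasts with HSF1-driven luciferase reporter stressed by proteasome inhibitor MG132; luminescence from HSF1-driven luciferase expression after 8 hours of MG132 stress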
T3 sequence (P38532 whole entry): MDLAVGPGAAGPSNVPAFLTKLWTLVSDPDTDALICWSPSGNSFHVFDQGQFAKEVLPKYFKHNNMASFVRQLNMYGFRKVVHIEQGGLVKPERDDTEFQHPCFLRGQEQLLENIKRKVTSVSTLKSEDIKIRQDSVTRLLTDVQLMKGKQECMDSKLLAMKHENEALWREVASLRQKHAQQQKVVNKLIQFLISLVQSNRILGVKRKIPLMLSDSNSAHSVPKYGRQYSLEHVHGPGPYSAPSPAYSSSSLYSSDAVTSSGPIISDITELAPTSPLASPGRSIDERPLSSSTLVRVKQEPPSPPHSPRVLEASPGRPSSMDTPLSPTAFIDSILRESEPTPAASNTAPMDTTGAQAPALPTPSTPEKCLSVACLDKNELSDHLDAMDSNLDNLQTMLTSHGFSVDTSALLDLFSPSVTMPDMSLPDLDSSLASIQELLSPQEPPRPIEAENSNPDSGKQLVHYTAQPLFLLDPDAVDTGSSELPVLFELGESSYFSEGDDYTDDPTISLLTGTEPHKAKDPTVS

[18] = molecular target: T4, Rac GTPase-activating protein 1 (Homo sapiens, UniProt Q9H0H5); assay: blockers of MgcRacGAP-driven Rac1 GTP hydrolysis – biochemical, ADP Hunter fluorescence, primary and confirmatory, confirmation (AID 624330); format: functional
T4 sequence (Q9H0H5 whole entry): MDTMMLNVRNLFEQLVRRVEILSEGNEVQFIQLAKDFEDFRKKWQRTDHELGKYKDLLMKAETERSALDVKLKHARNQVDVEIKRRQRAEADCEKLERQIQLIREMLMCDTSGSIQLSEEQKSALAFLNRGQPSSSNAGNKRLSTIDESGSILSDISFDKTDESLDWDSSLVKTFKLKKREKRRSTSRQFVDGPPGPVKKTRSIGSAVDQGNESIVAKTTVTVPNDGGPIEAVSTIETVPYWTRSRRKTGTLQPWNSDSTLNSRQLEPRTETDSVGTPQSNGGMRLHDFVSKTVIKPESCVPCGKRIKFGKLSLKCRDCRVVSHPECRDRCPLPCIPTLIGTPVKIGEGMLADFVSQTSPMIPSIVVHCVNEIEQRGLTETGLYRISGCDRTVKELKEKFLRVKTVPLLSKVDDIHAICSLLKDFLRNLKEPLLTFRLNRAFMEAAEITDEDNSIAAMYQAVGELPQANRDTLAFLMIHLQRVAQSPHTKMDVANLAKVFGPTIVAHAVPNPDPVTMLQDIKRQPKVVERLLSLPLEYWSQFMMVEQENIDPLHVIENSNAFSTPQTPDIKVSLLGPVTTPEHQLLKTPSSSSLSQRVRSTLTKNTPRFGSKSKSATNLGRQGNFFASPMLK

[19] = molecular target: T5, DNA repair protein RAD52 homolog (Homo sapiens, UniProt P43351); format: functional, biochemical
T5 sequence (P43351 whole entry): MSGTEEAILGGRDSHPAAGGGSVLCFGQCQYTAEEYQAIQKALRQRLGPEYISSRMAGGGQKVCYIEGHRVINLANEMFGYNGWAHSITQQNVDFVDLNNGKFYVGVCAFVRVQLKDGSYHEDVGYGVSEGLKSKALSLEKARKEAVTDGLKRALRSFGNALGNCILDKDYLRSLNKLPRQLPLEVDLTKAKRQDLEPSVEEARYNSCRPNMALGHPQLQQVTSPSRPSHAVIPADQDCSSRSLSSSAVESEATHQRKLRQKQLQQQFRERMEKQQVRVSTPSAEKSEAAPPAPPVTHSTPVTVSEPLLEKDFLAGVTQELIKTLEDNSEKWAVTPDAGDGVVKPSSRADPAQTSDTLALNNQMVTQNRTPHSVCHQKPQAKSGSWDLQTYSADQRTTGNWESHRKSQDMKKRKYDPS

[20] = molecular target: Paired box protein Pax-8 (Homo sapiens, UniProt Q06710); assay: PAX8 transcriptional activity inhibition in RMG-I – RMG-I cells, luciferase, cherry-pick, dose response (AID 687027); format: functional, cell-based;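 also: luciferase reporter driven by Pax8 target thyroperoxidase promoter measured by SteadyGlo luminescence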
[21] = OVCAR-3 cell viability loss – plate reader, dry powder samples, PAX8 inhibitor project, dose response (AID 743044); format: functional, cell-based
[22] = microbe, parasite or virus in culture; format: functional; conditions: Mycobacterium tuberculosis
[23] = viability of uninfected HEp-2 cells – cell-based, HTS, cytotoxicity control for RSV inhibitor project, dose response (AID 2410); format: functional; conditions: human respiratory syncytial virus

Chain of Tumor necrosis factor (P01375 whole entry): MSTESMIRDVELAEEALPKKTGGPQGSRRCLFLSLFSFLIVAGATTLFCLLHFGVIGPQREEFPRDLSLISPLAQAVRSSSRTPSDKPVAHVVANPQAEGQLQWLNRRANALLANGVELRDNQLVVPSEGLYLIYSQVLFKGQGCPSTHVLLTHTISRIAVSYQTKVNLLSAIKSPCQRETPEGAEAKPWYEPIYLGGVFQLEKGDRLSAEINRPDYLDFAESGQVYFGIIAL
Chain of Nucleotide-binding oligomerization domain-containing protein 2 (Q9HC29 whole entry, the tested form may be a part): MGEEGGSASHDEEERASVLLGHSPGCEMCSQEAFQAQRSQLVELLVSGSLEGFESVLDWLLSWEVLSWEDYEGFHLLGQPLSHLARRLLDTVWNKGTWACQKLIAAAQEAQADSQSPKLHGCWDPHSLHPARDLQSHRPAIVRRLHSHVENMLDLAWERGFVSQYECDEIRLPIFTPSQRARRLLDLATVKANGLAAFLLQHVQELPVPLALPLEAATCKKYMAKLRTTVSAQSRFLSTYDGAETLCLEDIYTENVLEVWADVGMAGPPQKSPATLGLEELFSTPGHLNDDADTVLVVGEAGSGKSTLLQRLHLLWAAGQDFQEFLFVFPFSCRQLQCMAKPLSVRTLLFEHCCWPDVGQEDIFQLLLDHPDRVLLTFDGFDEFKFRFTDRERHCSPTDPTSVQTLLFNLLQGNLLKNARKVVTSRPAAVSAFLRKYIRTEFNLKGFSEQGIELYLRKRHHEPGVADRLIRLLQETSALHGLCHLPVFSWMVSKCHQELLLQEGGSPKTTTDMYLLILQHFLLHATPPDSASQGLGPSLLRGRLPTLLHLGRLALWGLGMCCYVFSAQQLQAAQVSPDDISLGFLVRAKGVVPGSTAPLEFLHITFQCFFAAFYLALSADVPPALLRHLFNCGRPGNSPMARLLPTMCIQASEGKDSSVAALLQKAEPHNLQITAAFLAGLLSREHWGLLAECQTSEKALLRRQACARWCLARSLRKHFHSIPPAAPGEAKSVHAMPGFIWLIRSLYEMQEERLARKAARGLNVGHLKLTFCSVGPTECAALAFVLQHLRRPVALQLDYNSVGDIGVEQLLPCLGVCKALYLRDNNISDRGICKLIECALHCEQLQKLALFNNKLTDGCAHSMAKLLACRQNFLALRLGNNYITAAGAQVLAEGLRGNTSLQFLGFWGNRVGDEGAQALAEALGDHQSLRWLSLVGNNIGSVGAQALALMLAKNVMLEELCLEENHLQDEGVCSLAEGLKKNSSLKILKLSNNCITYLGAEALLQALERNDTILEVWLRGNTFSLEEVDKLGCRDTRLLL
Chain of Paired box protein Pax-8 (Q06710 whole entry): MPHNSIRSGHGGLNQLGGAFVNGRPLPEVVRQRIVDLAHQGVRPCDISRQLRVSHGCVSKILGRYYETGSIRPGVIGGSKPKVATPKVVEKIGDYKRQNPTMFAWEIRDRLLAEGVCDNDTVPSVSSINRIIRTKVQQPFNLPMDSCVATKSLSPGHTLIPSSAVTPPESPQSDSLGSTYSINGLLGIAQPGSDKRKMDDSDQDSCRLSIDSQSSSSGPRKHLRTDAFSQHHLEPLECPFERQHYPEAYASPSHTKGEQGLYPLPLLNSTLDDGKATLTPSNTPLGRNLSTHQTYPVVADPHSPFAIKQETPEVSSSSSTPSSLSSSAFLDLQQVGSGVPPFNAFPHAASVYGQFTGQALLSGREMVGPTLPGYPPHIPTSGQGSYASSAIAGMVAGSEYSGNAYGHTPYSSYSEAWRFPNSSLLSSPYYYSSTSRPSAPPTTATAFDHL

COc1ccc(/N=C/c2ccc[nH]2)cc1
IC50 [1]: > 100 µM (active)

CC(=O)N1[C@@H]2c3ccc(-c4cccnc4)c(=O)n3C[C@@H]2[C@@H](CO)[C@@H]1C(=O)NCc1ccccc1Cl
AC50 [2]: 1.09 µM (active)

O=C(Cc1cccs1)N1CCN=C1SCc1ccc(Br)cc1
IC50 [1]: > 100 µM (active)

CC(C)c1onc(C(=O)NCCc2ccccc2)c1[N+](=O)[O-]
EC50 [3]: > 29.9 µM (inactive)
IC50 [4]: > 29.9 µM (inactive)

COc1cccc(C(=O)Nc2sc3c(c2C(=O)O)CCCC3)c1
EC50 [5]: > 20 µM (inactive)
IC50 [6]: > 20 µM (inactive)
IC50 [7]: > 20 µM (inactive)
IC50 [8]: > 20 µM (inactive)
IC50 [9]: > 20 µM (inactive)
IC50 [10]: 1.76 µM (active)
IC50 [11]: > 20 µM (inactive)
EC50 [12]: > 20 µM (inactive)
IC50 [13]: > 20 µM (inactive)

O=C(Nc1sc2c(c1C(=O)O)CCCC2)c1ccccc1Cl
EC50 [5]: > 20 µM (inactive)
IC50 [6]: > 20 µM (inactive)
IC50 [7]: > 20 µM (inactive) and 12.9 µM (active)
IC50 [8]: > 20 µM (inactive)
IC50 [9]: > 20 µM (inactive)
IC50 [10]: 5.12 µM (active) and 4.45 µM (active)
IC50 [11]: 18.5 µM (inactive)
EC50 [12]: 14.5 µM (active)
IC50 [13]: > 20 µM (inactive)

Cn1nnc2cc(C(=O)N3CCC(c4ccccc4)C3)ccc21 (stereo not given)
AC50 [2]: 4.86 µM (active)
EC50 [14]: > 350 µM (not active)
EC50 [15]: > 350 µM (not active)

CC(=O)c1ccc(N2CCN(C(=O)c3ccc4[nH]cnc4c3)CC2)cc1
AC50 [2]: 8.11 µM (active)

COc1ccc(NC(=O)CSc2ncn(-c3ccccc3)n2)cc1Cl
IC50 [1]: > 100 µM (active)

O=C(CCCOc1ccccc1)NCCc1ccccc1
EC50 [3]: > 29.9 µM (inactive)
IC50 [4]: > 29.9 µM (inactive)

CNC(=S)N/N=C/c1ccc(-c2cccc(C(=O)O)c2)o1
AC50 [16]: 7.05 µM (active)
EC50 [17]: > 195 µM (not active)

O=C(CNCc1ccco1)Nc1ccc(Oc2ccccc2)cc1
IC50 [18]: 122 µM (active)
IC50 [1]: > 100 µM (active)

Cc1nnc(N2CCC(C(=O)N3CCCCC3)CC2)c2nn(-c3ccc(Cl)cc3)c(C)c12
AC50 [2]: 4.14 µM (active)

COc1ccc(NC(=O)c2ccc(S(=O)(=O)N(C)C)cc2)cc1OC
AC50 [2]: 9.66 µM (active)

N=C(N)Nc1cc2ccccc2c2ccccc12
EC50 [3]: > 29.9 µM (inactive)
IC50 [4]: > 29.9 µM (inactive)
AC50 [19]: 7.61 µM (active)

Cc1ccc(CNC(=O)c2cc3c(=O)n(C)c4ccccc4c3n2C)o1
AC50 [16]: > 120 µM (inactive)

O=C(Nc1nc(-c2ccc(-c3ccccc3)cc2)cs1)c1cnccn1
IC50 [1]: > 100 µM (active)

C[C@@H]1CN([C@H](C)CO)C(=O)c2cc(NS(=O)(=O)c3ccc(Cl)cc3)ccc2O[C@@H](C)CCCCO[C@H]1CN(C)Cc1ccc(Cl)c(Cl)c1
AC50 [20]: 4.84 µM (active)
AC50 [21]: 32.8 µM (active)

CN1/C(=N\O)c2cccc3cccc1c23
AC50 [16]: 1.28 µM (active)
IC50 [18]: 24.8 µM (active)
CC50 [22]: > 40 µM (active)
CC50 [23]: 24.9 µM (active)

CCOc1ccc(NC(=O)c2ccc(CN3CCc4ccccc43)cc2)cc1
IC50 [7]: > 20 µM (inactive)
IC50 [9]: > 20 µM (inactive)
IC50 [10]: > 20 µM (inactive)
